# Measured values published in paper PMC11395237, “Characteristics of a Novel Zearalenone Lactone Hydrolase ZHRnZ and Its Thermostability Modification” (International Journal of Molecular Sciences, 2024).
# Legend:
# Assay in all cases: HPLC-fluorescence of residual substrate
# Type in all cases: biochemical
# Conditions in all cases: read-out: Km (μg.mL^-1); pH 9.0, 45 °C, 10 min, 25 μg/mL enzyme, 10-60 μg/mL ZEN
# [1] = target: T1, ZHRnZ (Rosellinia necatrix, UniProt A0A1W2TNW3, E122Q)
# T1 construct: gene SAMD00023353_4301030; His-tag from pET28a (BamHI/XhoI), codon-optimized gene, E. coli BL21(DE3), Ni-NTA purified; homodimer by homology model
# From the text: (§1) HPLC-fluorescence of residual substrate on ZHRnZ
# [2] = target: T2, ZHRnZ (Rosellinia necatrix, UniProt A0A1W2TNW3, E122R)
# T2 construct: gene SAMD00023353_4301030; His-tag from pET28a (BamHI/XhoI), codon-optimized gene, E. coli BL21(DE3), Ni-NTA purified; homodimer by homology model
# From the text: as §1
# [3] = target: T3, ZHRnZ (Rosellinia necatrix, UniProt A0A1W2TNW3)
# T3 construct: gene SAMD00023353_4301030; His-tag from pET28a (BamHI/XhoI), codon-optimized gene, E. coli BL21(DE3), Ni-NTA purified; homodimer by homology model
# From the text: as §1
# T1 sequence (A0A1W2TNW3 whole entry E122Q): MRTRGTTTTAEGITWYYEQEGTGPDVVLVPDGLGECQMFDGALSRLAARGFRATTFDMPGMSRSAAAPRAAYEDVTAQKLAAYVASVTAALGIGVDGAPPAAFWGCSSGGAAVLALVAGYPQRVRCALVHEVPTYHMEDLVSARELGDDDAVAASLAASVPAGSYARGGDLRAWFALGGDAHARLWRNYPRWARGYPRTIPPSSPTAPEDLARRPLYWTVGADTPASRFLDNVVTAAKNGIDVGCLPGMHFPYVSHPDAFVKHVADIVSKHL
# T3 sequence (A0A1W2TNW3 entry or part of it): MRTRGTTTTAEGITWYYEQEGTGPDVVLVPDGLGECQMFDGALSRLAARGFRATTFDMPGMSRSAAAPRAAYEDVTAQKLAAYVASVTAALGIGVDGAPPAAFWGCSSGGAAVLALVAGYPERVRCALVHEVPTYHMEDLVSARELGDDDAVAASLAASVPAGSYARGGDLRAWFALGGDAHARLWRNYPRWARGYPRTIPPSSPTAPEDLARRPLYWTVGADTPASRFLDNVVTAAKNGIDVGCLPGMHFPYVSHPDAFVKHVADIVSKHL
# T2 sequence (A0A1W2TNW3 whole entry E122R): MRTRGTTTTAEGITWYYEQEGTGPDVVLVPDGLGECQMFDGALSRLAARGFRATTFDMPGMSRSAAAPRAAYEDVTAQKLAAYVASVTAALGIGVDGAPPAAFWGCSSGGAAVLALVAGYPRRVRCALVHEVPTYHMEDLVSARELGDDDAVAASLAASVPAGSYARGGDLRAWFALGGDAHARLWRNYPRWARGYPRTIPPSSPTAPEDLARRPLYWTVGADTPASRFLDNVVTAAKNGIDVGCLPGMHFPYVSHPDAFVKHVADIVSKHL
compound,measurement,setting,value
C[C@H]1CCCC(=O)CCC/C=C/c2cc(O)cc(O)c2C(=O)O1 [ZEN],Km,[1],271 µM
same,Km,[2],25.5 µM
same,Km,[3],67.6 µM
